# Results from patent publication US20230365625A1, “METHODS FOR TREATING AND/OR PREVENTING UNDESIRABLE SEQULAE OF NASAL TURBINOPLASTY OR FUNCTIONAL ENDOSCOPIC SINUS SURGERY” (3-D Matrix, Ltd., priority 2022, published 2023).
# Values joined by “and” are separate entries in the source; they are usually repeats but may differ in a detail not shown here. Identical values can stand only once. “Also recorded” adds a separate entry of the source.
# Columns and labels:
# [1] = system: Functional Endoscopic Sinus Surgery (FESS) surgical wound; assay type: in vivo, human
# Text: Study design—This study was a retrospective chart review of 94 consecutive human patients who underwent FESS and who were operated on by a single surgeon in a single center in Perth, Western Australia. FIGS. 6A and 6B show a flowchart of patients based on extent of surgery and outcomes. Only patients treated with PuraSinus alone (no other hemostatic agent was used) were included in the analysis. Ethics approval was obtained from St John of Good Health Care Human Research Ethics Committee.
# Patient population—The study included adult human patients who underwent FESS procedures and also included patients who underwent FESS in combination with nasal surgery (septoplasty and/or turbinoplasty). Both primary and revision cases were included. Patients were discharged the day after surgery with a recommendation to perform saline nasal irrigations no less than four times a day. Patient characteristics, indication for surgery, extent of surgical intervention, and bleeding and adhesion information was recorded.
# Surgical categories—Procedures were performed according to the minimally invasive sinus technique (MIST), including combination of maxillary antrostomy, ethmoidectomies, sphenoidotomies and frontal sinus (Draf Ila, or Draf 111), turbinate reduction and/or septoplasty. FESS procedures were categorized into two groups: complete FESS (including all sinuses—maxillary antrostomy, ethmoidectomy, sphenoidotomy, and frontal sinusotomy) or limited FESS (anything less than complete FESS, usually involves antrostomy and ethmoidectomy). The surgical extent was dictated by the patient's condition and the surgeon's clinical judgement.
# Material used—PuraSinus (licensed as PuraStat in Australia, 3D-Matrix)/RADA16-I (SEQ ID NO:1) 2.5% w/v in water is a transparent SAP solution supplied sterile in a pre-filled syringe (available in a 3 mL and 5 mL form) ready for use with a thin application nozzle suited for endoscopic catheter administration. The syringe is stored at between 2° C. and 8° C. At completion of the FESS procedure, PuraSinus was applied to the surgical wound in a thin and even layer as close as possible to the bleeding point. A similar application technique has been outlined previously (M. Lee et al., Int. J. Surg. Case Rep. 41: 461-4 (2017)). […] Tissues treated with the hydrogel were visible via endoscope given the gel's transparency.
# Outcomes and objectives—The objectives of this study were to evaluate the effectiveness of PuraSinus in rapidly achieving intraoperative hemostasis and to assess the incidence of delayed bleeding ([…]) and synechiae formation via endoscopic observation of the nasal mucosa at follow-up visits. Primary bleeding was defined as bleeding occurring within 24 hours of surgery.
# Data analysis—Statistical analysis was performed using descriptive statistics for continuous variables and patient demographics were reported. The rate of successful hemostasis and incidence of synechiae formation were calculated as a proportion of total patients undergoing FESS.
# Adhesions—Nasal endoscopic examination of each patient was performed at a first follow-up visit occurring between 7 and 30 days after surgery (median 15 days, mean±SD 14.0±3.7 days). A subsequent follow-up examination of each patient was performed on average on day 42, ranging from 28 to 79 days post-surgery. […] Debridement of the observed synechiae was performed in these cases in the outpatient setting by either suction (n=13) or scissors (n=10). […] Thus, the desired outcome of intraoperative treatment with PuraSinus (SEQ ID NO:1) in achieving recovery without synechiae formation in these patients was nearly 90% (n=84/94). None of the patients who had required additional intervention for hemostasis subsequently presented with adhesion formation.
# [2] = system: nasal mucosal injuries on the middle turbinate and opposing nasal septum; test: Endoscopic grading of synechiae/adhesion formation at day 14 and day 42, sheep model; assay type: in vivo, Merino sheep; set-up: key to Adhesion score day 14 / Adhesion score day 42: 0: No intranasal adhesions/synechiae; 1: Intranasal adhesion extends less than 25% to septum; Intranasal adhesion extends 25-50% to septum; 3: Intranasal adhesion extends more than 50% to septum; 4: Completely formed adhesion/synechiae extending to septum; details: for Number of sites, synechiae Grade 0 / Number of sites, synechiae Grade 1 / Number of sites, synechiae Grade 2 / Number of sites, synechiae Grade 3 / Number of sites, synechiae Grade 4: 20 sites per group
# Description: Post-operative observations—Post recovery from anesthesia, the animals were returned to their pens with ongoing daily monitoring for 14 days, including bloody nasal discharge, temperature, and food and water intake. On each postoperative day, the animals were examined externally by an independent observer, with no involvement in the operation, for the presence of bloody nasal discharges. External blood was cleaned off after each examination followed with irrigation of each nostril using 20 ml of saline solution. Regular irrigation of the nose and sinuses is standard in post-operative care following nasal surgery. The sheep were sedated and examined via endoscope again on day 14 for the presence of adhesions and graded by an independent observer using the grading scheme below for sheep nasal adhesions. Representative endoscopic images for sites (two sites/sides per sheep) treated with PuraSinus (SEQ ID NO:1) are shown in FIG. 1 and untreated control sites are shown in FIG. 2, respectively. The sheep were euthanized at day 42, with a necropsy performed by the same independent observer grading intranasal adhesion formation and extension. […] [table]
structure (smiles),measurement,setting,value
"CC(=O)N[C@@H](CCCNC(=N)N)C(=O)N[C@@H](C)C(=O)N[C@@H](CC(=O)O)C(=O)N[C@@H](C)C(=O)N[C@@H](CCCNC(=N)N)C(=O)N[C@@H](C)C(=O)N[C@@H](CC(=O)O)C(=O)N[C@@H](C)C(=O)N[C@@H](CCCNC(=N)N)C(=O)N[C@@H](C)C(=O)N[C@@H](CC(=O)O)C(=O)N[C@@H](C)C(=O)N[C@@H](CCCNC(=N)N)C(=O)N[C@@H](C)C(=O)N[C@@H](CC(=O)O)C(=O)N[C@@H](C)C(N)=O [PuraSinus, Ac-RADARADARADARADA-NH2]","Adhesion formation at first follow up visit, patients",[1]; 7-30 days after surgery,18
same,"Persisting adhesions, patients","[1]; final outcome, of 23",5
same,"Resolved adhesions, patients","[1]; final outcome, of 23",18
same,"Adhesion formation, total patients","[1]; full follow-up period, n of 94",23
same,"Adhesion (synechiae) formation, rate","[1]; full follow-up period, of 94 patients",24.5%
same,Pain at the surgical site,"[1]; human, in vivo",all patients expressed comfort with no pain
same,Patients with no adhesions found,[1]; n of 94,71
same,"Adhesion location: Inferior turbinate/septum + medial turbinate/lateral wall, patients",[1]; of 23,4
same,"Adhesion location: Inferior turbinate/septum, patients",[1]; of 23,12
same,"Adhesion location: Medial turbinate/lateral wall, patients",[1]; of 23,7
same,"Debridement by scissors (sharp), patients",[1]; of 23,10
same,"Debridement by suction, patients",[1]; of 23,13
same,Patients with adhesion formation: Complete FESS,[1]; of 23,8
same,Patients with adhesion formation: Female,[1]; of 23,16
same,Patients with adhesion formation: Limited FESS,[1]; of 23,15
same,Patients with adhesion formation: Male,[1]; of 23,7
same,"Patients free of adhesions, rate","[1]; second follow-up examination, of 94 patients",~90% and 89.4%
same,Patients without adhesions,"[1]; second follow-up, no adhesions or adhesions easily removed by suction, of 94",84 and 84/94
same,Reduction of two-week synechiae score versus Controls,[2]; 2 weeks,91%
same,Reduction of two-week synechiae score versus Gelatin-thrombin treatment,[2]; 2 weeks,92%
same,Reduction of six-week synechiae score,[2]; 6 weeks,100%
same,Sites in which synechiae occurred,[2]; at 2 weeks,20%
same,Sites in which synechiae occurred,[2]; at 6 weeks,0%
same,Adhesion score day 42,"[2]; individual site, grade 0-4",0
same,Adhesion score day 14,"[2]; individual site, grade 0-4, listed as P",0 (16×) and 1 (Intranasal adhesion extends less than 25% to septum) (3×) and 2 (Intranasal adhesion extends 25-50% to septum)
same,Two-week synechiae score,"[2]; maximum 4 points, mean±SD",0.3±0.6 points
same,Synechiae formation compared to FLOSEAL and untreated control,"[2]; sheep, result in words",lowest observed synechiae formation; also recorded: more effective in inhibiting the formation of synechiae; also recorded: statistically significant lower incidence of adhesions; also recorded: significantly reduced synechiae formation
same,"Number of sites, synechiae Grade 0",[2]; six weeks post-surgery,20
same,"Number of sites, synechiae Grade 1",[2]; six weeks post-surgery,0
same,"Number of sites, synechiae Grade 2",[2]; six weeks post-surgery,0
same,"Number of sites, synechiae Grade 3",[2]; six weeks post-surgery,0
same,"Number of sites, synechiae Grade 4",[2]; six weeks post-surgery,0
same,"Number of sites, synechiae Grade 0",[2]; two weeks post-surgery,16
same,"Number of sites, synechiae Grade 1",[2]; two weeks post-surgery,3
same,"Number of sites, synechiae Grade 2",[2]; two weeks post-surgery,1
same,"Number of sites, synechiae Grade 3",[2]; two weeks post-surgery,0
same,"Number of sites, synechiae Grade 4",[2]; two weeks post-surgery,0
